Read-outs that look alike come from different tables or passages of the source. Square brackets hold non-standard residues; d marks the D form. Ends that are not written are not given here. Peptide text beside a SMILES is read from it.
Key:
human CMKLR1 = target: T1, human CMKLR1 (Homo sapiens, UniProt Q99788); experiment: Ca2+ mobilization (CellLux imaging) agonist assay in HEK293A cells expressing CMKLR1 and Gα15; assay type: cell-based
T1 construct: host or cells: HEK293A (Invitrogen), stably expressing human Gα15
T1 sequence (Q99788 1-373): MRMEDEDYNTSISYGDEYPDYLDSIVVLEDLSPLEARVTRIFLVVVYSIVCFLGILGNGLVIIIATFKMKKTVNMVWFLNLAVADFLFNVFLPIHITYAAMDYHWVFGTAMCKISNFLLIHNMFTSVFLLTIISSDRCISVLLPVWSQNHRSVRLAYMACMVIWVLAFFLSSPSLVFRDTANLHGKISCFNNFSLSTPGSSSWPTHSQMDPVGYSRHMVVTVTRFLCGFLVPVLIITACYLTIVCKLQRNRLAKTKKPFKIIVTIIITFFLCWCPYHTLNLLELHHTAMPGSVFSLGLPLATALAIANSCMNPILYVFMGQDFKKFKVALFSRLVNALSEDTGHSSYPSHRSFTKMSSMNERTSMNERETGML
Method in brief: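 Agonist-evoked Ca2+ rise, read as FLUO4-AM fluorescence by imaging, in HEK293A cells carrying CMKLR1 plus Gα15. Peptides were diluted in C1 solution (pH 7.4) containing 0.1% BSA. Duplicate signals were averaged, corrected for buffer wells and normalized to background, and EC50 was fitted from amplitude versus concentration.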

[1] = In vitro peptide stability in human serum (RP-HPLC); details: for half-life at 50 µg/mL: human, human serum, 25% (v/v) in RPMI
[2] = Ca2+ mobilization, CMKLR1, decimal comma
[3] = Ca2+ mobilization, CMKLR1, decimal comma, NR where no EC50 is given, read-out: EC50
[4] = intracellular calcium mobilization, HEK293 cells expressing CMKLR1, mean of three independent experiments ± SD, read-out: activity: EC50 ±SD

Compound	max response (human CMKLR1; [2])	EC50 (human CMKLR1; [3])	half-life at 50 µg/mL [1]	EC50 (human CMKLR1; [4])	t1/2 ([1]; metabolic stability in human serum)
CC(C)C[C@H](NC(=O)[C@@H]1CCCN1C(=O)[C@@H](NC(=O)[C@H](Cc1ccc(O)cc1)NC(=O)[C@@H]1CCCN1)C(C)C)C(=O)N[C@H](CC(=O)O)C(=O)N[C@@H](Cc1ccc(O)cc1)C(=O)N[C@@H](C)C(=O)N[C@@H](Cc1ccccc1)C(=O)O [compound 111] (H-PYVPL[dD]YAF-OH; N-terminus assumed)	1,5 DF/F0	1.94 µM	92 min	–	–
CC(C)C[C@H](NC(=O)[C@H](N)Cc1ccc(O)cc1)C(=O)N1CCC[C@H]1C(=O)N[C@H](CO)C(=O)N[C@@H](CCC(N)=O)C(=O)N[C@@H](Cc1ccc(O)cc1)C(=O)N[C@@H](C)C(=O)N[C@@H](Cc1ccccc1)C(=O)N[C@H](CO)C(=O)O [yLPsQYAFs] (H-[dY]LP[dS]QYAF[dS]-OH; N-terminus assumed)	–	–	1410 ± 85 min	0.0029 ± 0.00134 µM	–
YLPGQYAFY-OH [compound 48]	0,92 DF/F0	0.0156 µM	16 min	–	–
C[C@H](NC(=O)[C@H](Cc1ccc(O)cc1)NC(=O)[C@H](CCC(N)=O)NC(=O)CNC(=O)[C@H](Cc1ccccc1)NC(=O)[C@H](Cc1ccc(O)cc1)NC(=O)[C@H](N)CS)C(=O)N[C@@H](Cc1ccccc1)C(=O)N[C@H](CO)C(=O)O [compound 113] (H-[dC]YFGQYAF[dS]-OH; N-terminus assumed)	1,56 DF/F0	2.19 µM	29 min	–	–
CC(C)C[C@H](NC(=O)[C@H](C)NC(=O)[C@H](Cc1ccc(O)cc1)NC(=O)[C@@H](CCC(N)=O)NC(=O)CNC(=O)[C@@H]1CCCN1C(=O)[C@H](CC(C)C)NC(=O)[C@@H](N)Cc1ccc(O)cc1)C(=O)N[C@H](Cc1ccccc1)C(=O)O [compound 135] (H-YLPG[dQ]YAL[dF]-OH; N-terminus assumed)	1,48 DF/F0	0.0722 µM	40 min	–	–
PLPGQFQFK-OH [compound 70]	0,43 DF/F0	1.92 µM	27 min	–	–
CC(C)C[C@H](NC(=O)[C@@H](N)Cc1ccc(O)cc1)C(=O)N1CCC[C@H]1C(=O)NCC(=O)N[C@@H](CCC(N)=O)C(=O)N[C@@H](Cc1ccc(O)cc1)C(=O)N[C@@H](C)C(=O)N1CCC[C@@H]1C(=O)N[C@H](Cc1ccccc1)C(=O)O [compound 125] (H-YLPGQYA[dP][dF]-OH; N-terminus assumed)	1,69 DF/F0	0.0143 µM	42 min	–	–
C[C@H](NC(=O)[C@H](Cc1ccc(O)cc1)NC(=O)[C@H](CCC(N)=O)NC(=O)CNC(=O)[C@@H]1CCCN1C(=O)[C@H](CCCNC(=N)N)NC(=O)[C@@H](N)Cc1ccc(O)cc1)C(=O)N[C@@H](Cc1ccccc1)C(=O)N[C@H](CO)C(=O)O [compound 84] (H-YRPGQYAF[dS]-OH; N-terminus assumed)	1,84 DF/F0	–	–	–	21 min
YFLGQFAFK-OH [compound 76]	0,65 DF/F0	5.83 µM	16 min	–	–
CC(C)C[C@H](NC(=O)[C@@H](N)Cc1ccc(O)cc1)C(=O)N1CCC[C@H]1C(=O)N[C@H](CCC(N)=O)C(=O)N[C@@H](CCC(N)=O)C(=O)N[C@@H](Cc1ccc(O)cc1)C(=O)N[C@@H](C)C(=O)N[C@@H](Cc1ccccc1)C(=O)N[C@H](Cc1ccccc1)C(=O)O [YLPqQYAFf] (H-YLP[dQ]QYAF[dF]-OH; N-terminus assumed)	–	–	87 ± 19 min	0.00424 ± 0.00187 µM	–
FLPPQFAFF-OH [compound 73]	0,77 DF/F0	3 µM	20 min	–	–
C[C@H](NC(=O)[C@H](Cc1ccccc1)NC(=O)[C@H](C)NC(=O)[C@H](Cc1ccccc1)NC(=O)[C@@H](N)CCC(N)=O)C(=O)N[C@@H](Cc1ccccc1)C(=O)N[C@@H](C)C(=O)N[C@@H](Cc1ccccc1)C(=O)N[C@H](CO)C(=O)O [compound 115] (H-QFAFAFAF[dS]-OH; N-terminus assumed)	1,2 DF/F0	2.49 µM	24 min	–	–
C[C@@H](NC(=O)[C@H](Cc1ccc(O)cc1)NC(=O)[C@H](CCC(N)=O)NC(=O)[C@H](N)Cc1ccccc1)C(=O)N[C@@H](CCC(N)=O)C(=O)N[C@@H](Cc1ccc(O)cc1)C(=O)N[C@H](Cc1c[nH]c2ccccc12)C(=O)N[C@@H](Cc1ccccc1)C(=O)N[C@H](CO)C(=O)O [compound 146] (H-[dF]QY[dA]QY[dW]F[dS]-OH; N-terminus assumed)	1,49 DF/F0	0.171 µM	2260 min	–	–
LLPGLFLKL-OH [compound 74]	0,85 DF/F0	5.12 µM	39 min	–	–
CC(C)C[C@H](NC(=O)[C@@H](N)Cc1ccccc1)C(=O)N1CCC[C@H]1C(=O)NCC(=O)N[C@@H](CCC(N)=O)C(=O)N[C@@H](Cc1ccccc1)C(=O)N[C@H](Cc1c[nH]c2ccccc12)C(=O)N[C@@H](Cc1ccccc1)C(=O)N[C@H](CO)C(=O)O [compound 89] (H-FLPGQF[dW]F[dS]-OH; N-terminus assumed)	1,76 DF/F0	0.0492 µM	73 min	–	–
CC(C)C[C@H](NC(=O)[C@@H](N)Cc1ccc(O)cc1)C(=O)N1CCC[C@H]1C(=O)NCC(=O)N[C@@H](CCC(N)=O)C(=O)N[C@@H](C)C(=O)N[C@H](Cc1ccccc1)C(=O)N[C@@H](Cc1ccccc1)C(=O)N[C@@H](CCCCN)C(=O)O [compound 78] (H-YLPGQA[dF]FK-OH; N-terminus assumed)	1,15 DF/F0	233 µM	24 min	–	–
FLPGQFLPG-OH [compound 63]	0,81 DF/F0	0.554 µM	46 min	–	–
C[C@H](N)C(=O)N[C@@H](Cc1ccccc1)C(=O)N[C@H](CO)C(=O)N[C@@H](CCC(N)=O)C(=O)N[C@@H](Cc1ccccc1)C(=O)N[C@H](CO)C(=O)N[C@@H](C)C(=O)N[C@@H](Cc1ccccc1)C(=O)N[C@H](CO)C(=O)O [compound 106] (H-AF[dS]QF[dS]AF[dS]-OH; N-terminus assumed)	1,53 DF/F0	0.697 µM	110 min	–	–
CC(C)C[C@H](NC(=O)[C@H](C)NC(=O)[C@H](Cc1ccc(O)cc1)NC(=O)[C@@H](Cc1ccc(O)cc1)NC(=O)CNC(=O)[C@@H]1CCCN1C(=O)[C@H](CC(C)C)NC(=O)[C@@H](N)Cc1ccc(O)cc1)C(=O)N[C@H](Cc1ccccc1)C(=O)O [compound 136] (H-YLPG[dY]YAL[dF]-OH; N-terminus assumed)	1,4 DF/F0	0.075 µM	97 min	–	–
CC(C)C[C@H](NC(=O)[C@H](N)Cc1ccc(O)cc1)C(=O)N1CCC[C@H]1C(=O)NCC(=O)N[C@@H](CCC(N)=O)C(=O)N[C@@H](Cc1ccc(O)cc1)C(=O)N[C@@H](C)C(=O)N[C@@H](Cc1ccccc1)C(=O)N[C@@H](CO)C(=O)O [compound 82] (H-[dY]LPGQYAFS-OH; N-terminus assumed)	1,61 DF/F0	0.00362 µM	77 min	–	–
PLPGQQAFF-OH [compound 79]	0,6 DF/F0	–	84 min	–	–
CC(C)C[C@H](NC(=O)[C@@H](N)Cc1ccc(O)cc1)C(=O)N1CCC[C@H]1C(=O)NCC(=O)N[C@@H](CCC(N)=O)C(=O)N[C@@H](Cc1ccc(O)cc1)C(=O)N[C@@H](C)C(=O)N[C@@H](Cc1ccccc1)C(=O)N[C@H](Cc1ccccc1)C(=O)O [compound 80] (H-YLPGQYAF[dF]-OH; N-terminus assumed)	1,77 DF/F0	0.00021 µM	36 min	–	–
C[C@H](NC(=O)[C@H](Cc1ccc(O)cc1)NC(=O)[C@H](CCC(N)=O)NC(=O)[C@@H](CO)NC(=O)[C@H](Cc1ccccc1)NC(=O)[C@H](C)NC(=O)[C@@H](N)Cc1ccc(O)cc1)C(=O)N[C@@H](Cc1ccccc1)C(=O)N[C@H](CO)C(=O)O [compound 92] (H-YAF[dS]QYAF[dS]-OH; N-terminus assumed)	1,54 DF/F0	0.0609 µM	52 min	–	–
YLPGQFQFS-OH [compound 44]	0,76 DF/F0	0.00954 µM	15 min	–	–

Source: article PMC3351444, “Molecular Evolution of a Peptide GPCR Ligand Driven by Artificial Neural Networks” (PLoS ONE, 2012)
